From patent US20240252488A1 (KOREA RESEARCH INSTITUTE OF CHEMICAL TECHNOLOGY, priority 2020, published 2024)

Key:
[1] = target: T1, MLKL (Homo sapiens, UniProt Q8NB16); test: Measurement of binding affinity with MLKL receptor (competitive binding assay, Kd); parameters: made in house; host or cells: HEK 293 cell line (T7 phage in E. coli BL21-derived host is also described)
T1 sequence (Q8NB16 1-471): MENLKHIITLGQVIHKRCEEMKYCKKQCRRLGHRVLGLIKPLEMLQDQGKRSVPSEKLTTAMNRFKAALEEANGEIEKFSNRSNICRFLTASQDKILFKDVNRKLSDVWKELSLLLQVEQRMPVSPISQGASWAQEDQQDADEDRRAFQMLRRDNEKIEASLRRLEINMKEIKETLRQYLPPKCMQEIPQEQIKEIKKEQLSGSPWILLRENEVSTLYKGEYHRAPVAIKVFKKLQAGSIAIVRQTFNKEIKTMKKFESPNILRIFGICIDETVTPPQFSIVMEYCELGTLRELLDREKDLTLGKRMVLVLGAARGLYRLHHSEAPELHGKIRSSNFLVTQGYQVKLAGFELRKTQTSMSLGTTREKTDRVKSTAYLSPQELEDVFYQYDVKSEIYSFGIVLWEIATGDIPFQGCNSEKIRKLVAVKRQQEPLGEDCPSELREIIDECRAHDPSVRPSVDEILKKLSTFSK
Procedure, shortened: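 Competition binding of kinase tagged with DNA for qPCR detection, expressed in HEK 293 cells, against immobilized ligand on beads. Final DMSO 0.9%. Kd derived from kinase amount in eluates measured by qPCR.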

[2] = tested on: FADD−/− Jurkat cells; test: Necroptosis inhibition assay, TNF-α-induced necroptosis (CellTiter-Glo 2.0); assay type: cell-based, human; settings: TNF-α 15 ng/mL; for Necroptosis inhibition assay (Rescue %) 1 μM: compound 1 μM; for Necroptosis inhibition assay (Rescue %) 10 μM: compound 10 μM
Procedure, shortened: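 Cells at 5.0×10^5 cells/mL were pretreated with compound (final 0.1, 1 and 10 μM) for 30 minutes at room temperature, then given TNF-α at 15 ng/mL final. After 20 to 24 hours at 37° C, 5% CO2, viability was read as ATP luminescence to calculate cytotoxicity and necroptosis inhibition rate.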

[3] = target: T1, MLKL; test: MLKL degradation assay in HepG2 cell line (western blot); assay type: cell-based; parameters: endogenous in cells; host or cells: HepG2 or HaCaT; settings: cell line not given; for Degradation assay (Degradation %) 1 μM: compound 1 μM; for Degradation assay (Degradation %) 10 μM: compound 10 μM
Procedure, shortened: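 HepG2 cells were exposed to compound at a final 1 or 10 μM for 20-24 hours at 37 °C, 5% CO2. RIPA lysates were normalized by BCA assay, 10-15 μg protein resolved by SDS-PAGE, and MLKL levels detected by western blot with chemiluminescence.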

SMILES	Kd [1] [nM]	Necroptosis inhibition assay (Rescue %) 1 μM ([2]; FADD−/− Jurkat cells) [%]	Necroptosis inhibition assay (Rescue %) 10 μM ([2]; FADD−/− Jurkat cells) [%]	Degradation assay (Degradation %) 1 μM [3] [%]	Degradation assay (Degradation %) 10 μM [3] [%]	Necroptosis inhibition assay (Rescue %) 1.1 μM ([2]; compound 1.1 µM)	Necroptosis inhibition assay (Rescue %) 10 μM [2] [%]	Necroptosis inhibition assay (Rescue %) 1 μM [2] [%]
Nc1ncc(-c2cnn(C3CCN(CC4CCN(CC5CCN(C(=O)c6cccc(C(=O)NC7CCC(=O)NC7=O)c6)CC5)CC4)CC3)c2)nc1C(=O)O[C@@H](C(=O)Nc1ccc(F)cc1)c1ccccc1 (stereo partly drawn) [TDH-546, (R)-2-((4-fluorophenyl)amino)-2-oxo-1-phenylethyl 3-amino-6-(1-(1-((1-((1-(3-((2,6-dioxopiperidin-3-yl)carbamoyl)benzoyl)piperidin-4-yl)methyl)piperidin-4-yl)methyl)piperidin-4-yl)-1H-pyrazol-4-yl)pyrazine-2-carboxylate]	0.4	31.08	28.77	70.89	81.41	–	–	–
COc1ccc(C(=O)N2CCC(CN3CCC(CCN4CCC(n5cc(-c6cnc(N)c(C(=O)O[C@@H](C(=O)Nc7ccc(F)cc7)c7ccccc7)n6)cn5)CC4)CC3)CC2)cc1N1CCC(=O)NC1=O [TDH-505, (R)-2-((4-fluorophenyl)amino)-2-oxo-1-phenylethyl 3-amino-6-(1-(1-(2-(1-((1-(3-(2,4-dioxotetrahydropyrimidin-1(2H)-yl)-4-methoxybenzoyl)piperidin-4-yl)methyl)piperidin-4-yl)ethyl)piperidin-4-yl)-1H-pyrazol-4-yl)pyrazine-2-carboxylate]	0.36	102.00	76.87	90.52	94.63	–	–	–
Nc1ncc(-c2cnn(C3CN(CC4CCN(C(=O)CNc5ccc6c(c5)C(=O)N(C5CCC(=O)NC5=O)C6=O)CC4)C3)c2)nc1C(=O)O[C@@H](C(=O)Nc1ccc(F)cc1)c1ccccc1 (stereo partly drawn) [TDH-360, (R)-2-((4-fluorophenyl)amino)-2-oxo-1-phenylethyl 3-amino-6-(1-(1-((1-((2-(2,6-dioxopiperidin-3-yl)-1,3-dioxoisoindolin-5-yl)glycyl)piperidin-4-yl)methyl)azetidin-3-yl)-1H-pyrazol-4-yl)pyrazine-2-carboxylate]	3.3	–	–	87.25	73.06	55.49 (1.1µM) %	38.05	–
Nc1ncc(-c2cnn(C3CCN(CC4CCN(c5cccc6c5C(=O)N(C5CCC(=O)NC5=O)C6=O)CC4)CC3)c2)nc1C(=O)O[C@@H](C(=O)Nc1ccc(F)cc1)c1ccccc1 (stereo partly drawn) [TDH-149, (R)-2-((4-fluorophenyl)amino)-2-oxo-1-phenylethyl 3-amino-6-(1-(1-((1-(2-(2,6-dioxopiperidin-3-yl)-1,3-dioxoisoindolin-4-yl)piperidin-4-yl)methyl)piperidin-4-yl)-1H-pyrazol-4-yl)pyrazine-2-carboxylate]	40	–	–	48.51	77.36	–	55.19	82.1
Nc1ncc(-c2cnn(C3CCN(CCCN4CCN(c5ccc6c(c5)C(=O)N(C5CCC(=O)NC5=O)C6=O)CC4)CC3)c2)nc1C(=O)N[C@@H](C(=O)Nc1ccc(F)cc1)c1ccccc1 (stereo partly drawn) [TDH-491, 3-amino-6-(1-(1-(3-(4-(2-(2,6-dioxopiperidin-3-yl)-1,3-dioxoisoindolin-5-yl)piperazin-1-yl)propyl)piperidin-4-yl)-1H-pyrazol-4-yl)-N-((R)-2-((4-fluorophenyl)amino)-2-oxo-1-phenylethyl)pyrazine-2-carboxamide]	78	0.07	−24.78	19.04	14.39	–	–	–
Nc1ncc(-c2cnn(C3CCN(C(=O)COC4CCN(C(=O)CNc5ccc6c(c5)C(=O)N(C5CCC(=O)NC5=O)C6=O)CC4)CC3)c2)nc1C(=O)O[C@@H](C(=O)Nc1ccc(F)cc1)c1ccccc1 (stereo partly drawn) [TDH-396, (R)-2-((4-fluorophenyl)amino)-2-oxo-1-phenylethyl 3-amino-6-(1-(1-(2-((1-((2-(2,6-dioxopiperidin-3-yl)-1,3-dioxoisoindolin-5-yl)glycyl)piperidin-4-yl)oxy)acetyl)piperidin-4-yl)-1H-pyrazol-4-yl)pyrazine-2-carboxylate]	4.2	–	–	3.42	88.49	–	46.28	53.20
Nc1ncc(-c2ccc(N3CCN(CC4CCN(C(=O)COc5ccc6c(c5)C(=O)N(C5CCC(=O)NC5=O)C6=O)CC4)CC3)nc2)nc1C(=O)OC(C(=O)Nc1ccc(F)cc1)c1ccccc1 (centres unmarked) [TDH-256, 2-((4-fluorophenyl)amino)-2-oxo-1-phenylethyl 3-amino-6-(6-(4-((1-(2-((2-(2,6-dioxopiperidin-3-yl)-1,3-dioxoisoindolin-5-yl)oxy)acetyl)piperidin-4-yl)methyl)piperazin-1-yl)pyridin-3-yl)pyrazine-2-carboxylate]	78	–	–	36.84	24.99	–	44.55	45.87
Nc1ncc(-c2cnn(C3CCN(C(=O)c4cn(C5CCN(c6ccc7c(c6)C(=O)N(C6CCC(=O)NC6=O)C7=O)CC5)cn4)CC3)c2)nc1C(=O)O[C@@H](C(=O)Nc1ccc(F)cc1)c1ccccc1 (stereo partly drawn) [TDH-365, (R)-2-((4-fluorophenyl)amino)-2-oxo-1-phenylethyl 3-amino-6-(1-(1-(1-(1-(2-(2,6-dioxopiperidin-3-yl)-1,3-dioxoisoindolin-5-yl)piperidin-4-yl)-1H-imidazole-4-carbonyl)piperidin-4-yl)-1H-pyrazol-4-yl)pyrazine-2-carboxylate]	3.9	–	–	72.59	82.21	–	16.51	19.16
Nc1ncc(-c2cnn(C3CCN(CCCN4CCN(CC5CCN(C(=O)COc6ccc7c(c6)C(=O)N(C6CCC(=O)NC6=O)C7=O)CC5)CC4)CC3)c2)nc1C(=O)O[C@@H](C(=O)Nc1ccc(F)cc1)c1ccccc1 (stereo partly drawn) [TDH-440, (R)-2-((4-fluorophenyl)amino)-2-oxo-1-phenylethyl 3-amino-6-(1-(1-(3-(4-((1-(2-((2-(2,6-dioxopiperidin-3-yl)-1,3-dioxoisoindolin-5-yl)oxy)acetyl)piperidin-4-yl)methyl)piperazin-1-yl)propyl)piperidin-4-yl)-1H-pyrazol-4-yl)pyrazine-2-carboxylate]	0.51	65.67	24.42	81.51	84.75	–	–	–
Nc1ncc(-c2cnn(C3CCN(CCOC4CCN(C(=O)COc5ccc6c(c5)C(=O)N(C5CCC(=O)NC5=O)C6=O)CC4)CC3)c2)nc1C(=O)OC(C(=O)Nc1ccc(F)cc1)c1ccccc1 (centres unmarked) [TDH-252, 2-((4-fluorophenyl)amino)-2-oxo-1-phenylethyl 3-amino-6-(1-(1-(2-((1-(2-((2-(2,6-dioxopiperidin-3-yl)-1,3-dioxoisoindolin-5-yl)oxy)acetyl)piperidin-4-yl)oxy)ethyl)piperidin-4-yl)-1H-pyrazol-4-yl)pyrazine-2-carboxylate]	3.9	–	–	76.56	84.2	–	73.38	124.11
